Assay [1] concerns cultured human mast cells (CHMC). Kind of assay: CHMC low cell density ionomycin activation: tryptase assay. Particulars: low cell density CHMC, tryptase release, 3 point, read-out: LD Tryptase, CHMC, Iono, 3 pt. The format is cell-based.
Assay [2] has the same test system. Put plainly: CHMC low cell density IgE activation: tryptase assay. The format is cell-based. Particulars: low cell density CHMC, IgE activation, tryptase release. A digest of the protocol:
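Anti-IgE-driven degranulation of cultured human mast cells at low density, 1000–1500 cells/well, was induced over 30 min at 37 °C. It was scored by supernatant tryptase activity on a fluorogenic substrate.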

[3] abbreviates: 3 point, read-out: LD Tryptase, CHMC, IgE, 3 pt.
Setting [4] is: Homo sapiens, Mast cell, 3 point, read-out: LD Tryptase, CHMC, IgE, 3 pt.
Where [5] appears, read: Homo sapiens, Mast cell, 8 point, read-out: LD Tryptase, CHMC, IgE, 8 pt.
[6] abbreviates: 8 point, read-out: LD Tryptase, CHMC, IgE, 8 pt.

A value given as a limit tells only on which side of the number the result lay.

As for `CNC(=O)COc1c(C)cc(Nc2ncc(F)c(N(C)c3ccc(OC)c(Cl)c3)n2)cc1C` [Compound 579, N4-(3-Chloro-4-methoxyphenyl)-N2-[3,5-dimethyl-4-(N-methylamino)carbonylmethyleneoxyphenyl]-5-fluoro-N4-methyl-2,4-pyrimidinediamine], the IC50 in assay [1] is greater than 10 µM; in assay [2] (setting [3]) it was less than 10 µM.
Take `CNC(=O)COc1cccc(Nc2ncc(F)c(N(C)c3ccc(OC)c(Cl)c3)n2)c1` [Compound 580, N4-(3-Chloro-4-methoxyphenyl)-N2-[3-(N-methylamino)carbonylmethyleneoxyphenyl]-5-fluoro-N4-methyl-2,4-pyrimidinediamine]: the IC50 is greater than 10 µM in assay [1] and less than 10 µM in assay [2] (setting [3]).
For `COc1cc(Nc2ncc(F)c(N(C)c3ccc(OC(C)C)nc3)n2)cc(OC)c1` [Compound 581, N2-(3,5-Dimethoxyphenyl)-5-fluoro-N4-(2-isopropoxypyrid-5-yl)-N4-methyl-2,4-pyrimidinediamine], the IC50 in assay [1] (Homo sapiens, Mast cell) is greater than 10 µM; in assay [2] (setting [4]), less than 10 µM.
As to `CNC(=O)COc1cccc(Nc2ncc(F)c(N(C)c3ccc(OC(C)C)nc3)n2)c1` [Compound 582, 5-Fluoro-N4-(2-isopropoxypyrid-5-yl)-N4-methyl-N2-[3-(N-methylamino)carbonylmethyleneoxyphenyl]-2,4-pyrimidinediamine], the IC50 was greater than 10 µM in assay [1] and less than 10 µM in assay [2] (setting [3]).
Turning to `Cc1cc(C)cc(Nc2ncc(F)c(N(C)c3ccc(OC(C)C)nc3)n2)c1` [Compound 583, N2-(3,5-Dimethylphenyl)-5-fluoro-N4-(2-isopropoxypyrid-5-yl)-N4-methyl-2,4-pyrimidinediamine], the IC50 in assay [1] (Homo sapiens, Mast cell) was greater than 10 µM; in assay [2] (setting [4]) it was less than 10 µM.
In the case of `COc1ccc(N(C)c2nc(Nc3cc(C)cc(C)c3)ncc2F)cc1Cl` [Compound 584], the IC50 in assay [1] (Homo sapiens, Mast cell) is greater than 10 µM; in assay [2] (setting [4]), less than 10 µM.
For `COC(=O)c1cc2cc(Nc3ncc(F)c(N(C)c4ccc(OC)c(Cl)c4)n3)ccc2o1` [Compound 585, N4-(3-Chloro-4-methoxyphenyl)-5-fluoro-N2-(2-methoxycarbonylbenzofuran-5-yl)-N4-methyl-2,4-pyrimidinediamine] the same measures were greater than 10 µM and greater than 10 µM.
For `COC(=O)c1cc2cc(Nc3ncc(F)c(N(C)c4ccc(OC(C)C)nc4)n3)ccc2o1` [Compound 586, 5-Fluoro-N4-(2-isopropoxypyrid-5-yl)-N2-(2-methoxycarbonylbenzofuran-5-yl)-N4-methyl-2,4-pyrimidinediamine] the same measures were less than 10 µM and less than 10 µM.
With `COc1cc(Nc2ncc(F)c(N(C)c3ccc(Cl)c(OC)c3)n2)cc(OC)c1` [Compound 587, N4-(4-Chloro-3-methoxyphenyl)-N2-(3,5-dimethoxyphenyl)-5-fluoro-N4-methyl-2,4-pyrimidinediamine], the IC50 in assay [1] (Homo sapiens, Mast cell) was greater than 10 µM; in assay [2] (setting [4]) it was less than 10 µM; in assay [2] (setting [5]), less than 10 µM.
Take `COc1cc(N(C)c2nc(Nc3cc(C)cc(C)c3)ncc2F)ccc1Cl` [Compound 588]: the IC50 was greater than 10 µM in assay [1] (Homo sapiens, Mast cell) and less than 10 µM in assay [2] (setting [4]).
`CNC(=O)COc1cccc(Nc2ncc(F)c(N(C)c3ccc(Cl)c(OC)c3)n2)c1` [Compound 589, N4-(4-Chloro-3-methoxyphenyl)-5-fluoro-N4-methyl-N2-[3-(N-methylamino)carbonylmethyleneoxyphenyl]-2,4-pyrimidinediamine]: the figures for the IC50 in assay [1], in assay [2] (setting [3]) and in assay [2] (setting [6]) were greater than 10 µM, less than 10 µM and less than 10 µM, respectively.
With `COc1cc(N(C)c2nc(Nc3ccc4[nH]ccc4c3)ncc2F)ccc1Cl` [Compound 590, N4-(4-Chloro-3-methoxyphenyl)-5-fluoro-N2-(indol-5-yl)-N4-methyl-2,4-pyrimidinediamine], the IC50 in assay [1] (Homo sapiens, Mast cell) is greater than 10 µM; in assay [2] (setting [4]), less than 10 µM; in assay [2] (setting [5]), less than 10 µM.
For `COc1cc(Nc2ncc(F)c(N(C)c3cc(C)c(Cl)c(C)c3)n2)cc(OC)c1` [Compound 591], the IC50 in assay [1] (Homo sapiens, Mast cell) was greater than 10 µM; in assay [2] (setting [4]), less than 10 µM; in assay [2] (setting [5]), less than 10 µM.
On to `Cc1cc(C)cc(Nc2ncc(F)c(N(C)c3cc(C)c(Cl)c(C)c3)n2)c1` [Compound 592], for which the IC50 in assay [1] (Homo sapiens, Mast cell) was greater than 10 µM; in assay [2] (setting [4]) it was greater than 10 µM.
Consider `CNC(=O)COc1cccc(Nc2ncc(F)c(N(C)c3cc(C)c(Cl)c(C)c3)n2)c1` [Compound 593, N4-(4-Chloro-3,5-dimethylphenyl)-5-fluoro-N4-methyl-N2-[3-(N-methylamino)carbonylmethyleneoxyphenyl]-2,4-pyrimidinediamine], for which the IC50 in assay [1] is greater than 10 µM; in assay [2] (setting [3]) it was less than 10 µM; in assay [2] (setting [6]), less than 10 µM.
Consider `Cc1cc(N(C)c2nc(Nc3ccc4[nH]ccc4c3)ncc2F)cc(C)c1Cl` [Compound 594], for which the IC50 in assay [1] (Homo sapiens, Mast cell) is less than 10 µM; in assay [2] (setting [4]), less than 10 µM; in assay [2] (setting [5]), less than 10 µM.
Turning to `COC(=O)c1cc2cc(Nc3ncc(F)c(N(C)c4cc(C)c(Cl)c(C)c4)n3)ccc2o1` [Compound 595], the IC50 in assay [1] (Homo sapiens, Mast cell) is greater than 10 µM; in assay [2] (setting [4]) it was greater than 10 µM.
With `Cc1cc(N(C)c2nc(Nc3ccc(-c4ncco4)cc3)ncc2F)cc(C)c1Cl` [Compound 596], the IC50 is greater than 10 µM in assay [1] (Homo sapiens, Mast cell) and greater than 10 µM in assay [2] (setting [4]).
Turning to `Cc1cc(N(C)c2nc(Nc3cccc(-c4cnco4)c3)ncc2F)cc(C)c1Cl` [Compound 597], the IC50 in assay [1] (Homo sapiens, Mast cell) was greater than 10 µM; in assay [2] (setting [4]), less than 10 µM.
For `Cc1cc(N(C)c2nc(Nc3ccc(-c4cnco4)cc3)ncc2F)cc(C)c1Cl` [Compound 598], the IC50 in assay [1] (Homo sapiens, Mast cell) was greater than 10 µM; in assay [2] (setting [4]), less than 10 µM.
In the case of `Cc1cc(N(C)c2nc(Nc3ccc4cc[nH]c4c3)ncc2F)cc(C)c1Cl` [Compound 599], the IC50 was greater than 10 µM in assay [1] (Homo sapiens, Mast cell) and less than 10 µM in assay [2] (setting [4]).
With `CNC(=O)COc1ccc(Nc2nc(Nc3cc(C)cc(C)c3)ncc2F)cc1Cl` [Compound 600, N4-[3-Chloro-4-(N-methylamino)carbonylmethyleneoxyphenyl]-N2-(3,5-dimethylphenyl)-5-fluoro-2,4-pyrimidinediamine], the IC50 was greater than 10 µM in assay [1], less than 10 µM in assay [2] (setting [3]) and less than 10 µM in assay [2] (setting [6]).
As for `CNC(=O)COc1ccc(Nc2nc(Nc3cc(OC)cc(OC)c3)ncc2F)cc1Cl` [Compound 601, N4-[3-Chloro-4-(N-methylamino)carbonylmethyleneoxyphenyl]-N2-(3,5-dimethoxylphenyl)-5-fluoro-2,4-pyrimidinediamine], the results for the IC50 in assay [1], in assay [2] (setting [3]) and in assay [2] (setting [6]) were greater than 10 µM, less than 10 µM and less than 10 µM, respectively.
Consider `CNC(=O)COc1ccc(Nc2nc(Nc3ccc(OC)c(Cl)c3)ncc2F)cc1Cl` [Compound 602, N2-(3-Chloro-4-methoxyphenyl)-N4-[3-chloro-4-(N-methylamino)carbonylmethyleneoxyphenyl]-5-fluoro-2,4-pyrimidinediamine], for which the IC50 was greater than 10 µM in assay [1], less than 10 µM in assay [2] (setting [3]) and less than 10 µM in assay [2] (setting [6]).
As for `CNC(=O)COc1ccc(Nc2nc(Nc3cc(C)c(Cl)c(C)c3)ncc2F)cc1Cl` [Compound 603, N2-(4-Chloro-3,5-dimethylphenyl)-N4-[3-chloro-4-(N-methylamino)carbonylmethyleneoxyphenyl]-5-fluoro-2,4-pyrimidinediamine], the IC50 in assay [1] is greater than 10 µM; in assay [2] (setting [3]) it was less than 10 µM; in assay [2] (setting [6]), greater than 10 µM.
As to `Cc1cc(N(C)c2nc(Nc3ccc(-c4cocn4)cc3)ncc2F)cc(C)c1Cl` [Compound 604], the IC50 was greater than 10 µM in assay [1] (Homo sapiens, Mast cell) and less than 10 µM in assay [2] (setting [4]).
Regarding `CNC(=O)COc1ccc(Nc2nc(Nc3ccc4cc[nH]c4c3)ncc2F)cc1Cl` [Compound 605, N4-[3-Chloro-4-(N-methylamino)carbonylmethyleneoxyphenyl]-5-fluoro-N2-(indol-6-yl)-2,4-pyrimidinediamine], the IC50 is greater than 10 µM in assay [1], less than 10 µM in assay [2] (setting [3]) and less than 10 µM in assay [2] (setting [6]).
On to `COc1cc(N(C)c2nc(Nc3ccc(-c4cocn4)cc3)ncc2F)ccc1Cl` [Compound 606, N4-(4-Chloro-3-methoxyphenyl)-5-fluoro-N4-methyl-N2-[4-(oxazol-4-yl)phenyl]-2,4-pyrimidinediamine], for which the IC50 in assay [1] (Homo sapiens, Mast cell) is less than 10 µM; in assay [2] (setting [4]) it was less than 10 µM; in assay [2] (setting [5]), less than 10 µM.
In the case of `CNC(=O)c1cc(Nc2ncc(F)c(Nc3ccc(Cl)c(OC)c3)n2)ccc1Cl` [Compound 607, N4-(4-Chloro-3-methoxyphenyl)-N2-[4-chloro-3-(N-methylamino)carbonylphenyl]-5-fluoro-2,4-pyrimidinediamine], the IC50 in assay [1] (Homo sapiens, Mast cell) is greater than 10 µM; in assay [2] (setting [4]), less than 10 µM; in assay [2] (setting [5]) it was less than 10 µM.
`CNC(=O)COc1ccc(Nc2nc(Nc3ccc(Cl)c(C(=O)NC)c3)ncc2F)cc1Cl` [Compound 608, N4-[3-Chloro-4-(N-methylamino)carbonylmethyleneoxyphenyl]-N2-[4-chloro-3-(N-methylamino)carbonylphenyl]-5-fluoro-2,4-pyrimidinediamine]: the IC50 in assay [1] was greater than 10 µM; in assay [2] (setting [3]), less than 10 µM.
Turning to `CNC(=O)c1cc(Nc2ncc(F)c(Nc3ccc(Cl)c(C(F)(F)F)c3)n2)ccc1Cl` [Compound 609], the IC50 in assay [1] (Homo sapiens, Mast cell) was greater than 10 µM; in assay [2] (setting [4]) it was less than 10 µM; in assay [2] (setting [5]), less than 10 µM.
In the case of `CNC(=O)c1cc(Nc2ncc(F)c(N(C)c3cc(C)c(Cl)c(C)c3)n2)ccc1Cl` [Compound 610, N4-(4-Chloro-3,5-dimethylphenyl)-N2-[4-chloro-3-(N-methylamino)carbonylphenyl]-5-fluoro-N4-methyl-2,4-pyrimidinediamine], the IC50 in assay [1] (Homo sapiens, Mast cell) is greater than 10 µM; in assay [2] (setting [4]), greater than 10 µM.

Source of the values: patent US20220073536A1 (Rigel Pharmaceuticals, Inc., priority 2003, published 2022).
